Measured values taken from PMC7113684 (Antiviral Research, 2017).
Counter-ions that a name gives are not always drawn.

How the values were obtained:
[1] = molecular target: SARS-CoV 3CL^pro (Severe acute respiratory syndrome coronavirus, UniProt P0C6X7); details: cited from earlier work
[2] = tested on: Huh-7 cells; details: human
[3] = in vitro; details: human

| SMILES | activity against SARS-CoV 3CL^pro [1] | decrease of viability of mock cells [2] | CC50 [3] |
| --- | --- | --- | --- |
| CCOC(=O)/C=C/[C@H](C[C@@H]1CCNC1=O)NC(=O)[C@@H](CC(=O)[C@@H](NC(=O)c1cc(C)on1)C(C)C)Cc1ccc(F)cc1 [AG7088] | inactive | – | – |
| Nc1ccn([C@@H]2O[C@H](CO)[C@@H](O)C2(F)F)c(=O)n1 [GEM, Gemcitabine hydrochloride] | – | ≥ 20% | > 100 µM |
